Results from article PMC7795354, “Development of Radiogallium-Labeled Peptides for Platelet-Derived Growth Factor Receptor β (PDGFRβ) Imaging: Influence of Different Linkers” (Molecules, 2020).
Where “and” joins values, the source holds several entries; their conditions need not be identical. Equal values may be shown once. Read-outs that look alike come from different tables or passages of the source. Where a SMILES comes first, the peptide text is derived from it. The star is where a group is joined. DOTA = O=C(O)CN1CCN(CC(=O)O)CCN(CC(=O)*)CCN(CC(=O)O)CC1; AEEA = NCCOCCOCC(=O)O

Columns and labels:
[1] = Biodistribution in BxPC3-luc tumor-bearing mice; assay type: in vivo, BALB/c nu/nu mice; conditions: female, BALB/c nu/nu, iv, total radioactivity
Protocol: (§1) All animal handling procedures were approved by the Kanazawa University Animal Care Committee. Experiments with animals were conducted in accordance with the Guidelines for the Care and Use of Laboratory Animals of Kanazawa University. The animals were housed with free access to food and water at 23 °C with a 12 h light/dark schedule. Four-week-old female BALB/c nu/nu mice (12–17 g) were purchased from Japan SLC Inc. (Hamamatsu, Japan). The tumor-bearing model was prepared by subcutaneous inoculation of 1 × 10^7 BxPC3-luc cells into left shoulder of female BALB/c nu/nu mice. The biodistribution experiment was performed approximately 4–5 weeks post-inoculation.
(§2) A saline solution of [^67Ga]27 or [^67Ga]28 (74 kBq, 100 µL) was injected intravenously into the tail vein of the mice. The mice were sacrificed at 10 min post-injection for [^67Ga]27 and 1 h post-injection for [^67Ga]27 or [^67Ga]28. For in vivo blocking studies, 100 μL of a mixed saline solution of [^67Ga]27 (74 kBq) and IPLPPPRRPFFK peptide (1 mg/mouse) was injected via tile vein into the tumor-bearing mice. The mice were sacrificed at 1 h post-injection. Tissues of interest were removed and weighed. The radioactivity of the tissues was determined using an auto well gamma counter, and counts were corrected for background radiation and physical decay during counting. The data were expressed as percent injected dose per gram tissue (%ID/g).

[2] = tested on: BxPC3-luc tumor-bearing mice; experiment: Biodistribution in BxPC3-luc tumor-bearing mice; assay type: in vivo, BALB/c nu/nu mice
Protocol: as §1, §2

[3] = Biodistribution in BxPC3-luc tumor-bearing mice; assay type: in vivo; conditions: female, BALB/c nu/nu, mouse, stomach, iv, 74 kBq, total radioactivity; 1 h post-injection
[4] = In vitro stability in PBS pH 7.4; conditions: 37 °C, 0.1 M PBS pH 7.4
Protocol: (§3) Briefly, the solution of radiotracers (37 kBq/well, 50 µL) in a sealed tube containing 0.1 M PBS pH 7.4 (450 µL) was incubated at 37 °C for 24 h. At 3 and 24 h after incubation, the purity of radiotracers was analyzed by RP-HPLC. Meanwhile, for stability assay in murine plasma, radiotracers were mixed in murine plasma at a ratio of 1:10. After incubation at 37 °C for 10 min and 1 h, an equivalent amount of ice-cold acetonitrile was added. After centrifugation at 1000× g at 4 °C for 10 min, the supernatant was filtered through a 0.45-µm filter followed by analyzing using RP-HPLC as described above. Then, the radiochemical purities were determined.

[5] = In vitro stability in murine plasma; conditions: 37 °C
Protocol: as §3

[6] = Octanol-water partition coefficient (log P), shake-flask; conditions: n-octanol/PBS, pH 7.4
Protocol: The octanol-water partition coefficients for radiotracers were determined via the assessment of their distribution in n-octanol and PBS (pH 7.4) using shake-flask method as described previously [48]. Radioactivity of each layer was measured using auto well gamma counter (n = 4).

## CC[C@H](C)[C@H](NC(=O)COCCOCCNC(=O)CN1CCN(CC(=O)O)CCN(CC(=O)O)CCN(CC(=O)O)CC1)C(=O)N1CCC[C@H]1C(=O)N[C@@H](CC(C)C)C(=O)N1CCC[C@H]1C(=O)N1CCC[C@H]1C(=O)N1CCC[C@H]1C(=O)N[C@@H](CCCNC(=N)N)C(=O)N[C@@H](CCCNC(=N)N)C(=O)N1CCC[C@H]1C(=O)N[C@@H](Cc1ccccc1)C(=O)N[C@@H](Cc1ccccc1)C(=O)N[C@@H](CCCCN)C(=O)O [[^67Ga]27, [^67Ga]Ga-DOTA-EG2-IPLPPPRRPFFK, metal not drawn] ({DOTA-AEEA}-IPLPPPRRPFFK-OH)
[1]; blood, 1 h, blocking: co-injection of IPLPPPRRPFFK 1 mg/mouse, read-out: Biodistribution, Blood
  tissue uptake at 1 h: 0.93 %ID/g
[1]; bone, 1 h, blocking: co-injection of IPLPPPRRPFFK 1 mg/mouse, read-out: Biodistribution, Bone
  tissue uptake at 1 h: 0.21 %ID/g
[1]; brain, 1 h, blocking: co-injection of IPLPPPRRPFFK 1 mg/mouse, read-out: Biodistribution, Brain
  tissue uptake at 1 h: 0.02 %ID/g
[1]; heart, 1 h, blocking: co-injection of IPLPPPRRPFFK 1 mg/mouse, read-out: Biodistribution, Heart
  tissue uptake at 1 h: 0.28 %ID/g
[1]; 1 h, blocking: co-injection of IPLPPPRRPFFK 1 mg/mouse, BxPC3-luc tumor, read-out: Biodistribution, Tumor
  tissue uptake at 1 h: 0.96 %ID/g
[1]; kidney, 1 h, blocking: co-injection of IPLPPPRRPFFK 1 mg/mouse, read-out: Biodistribution, Kidney
  tissue uptake at 1 h: 12.2 %ID/g
[1]; large intestine, 1 h, blocking: co-injection of IPLPPPRRPFFK 1 mg/mouse, read-out: Biodistribution, Large intestine
  tissue uptake at 1 h: 0.25 %ID/g
[1]; liver, 1 h, blocking: co-injection of IPLPPPRRPFFK 1 mg/mouse, read-out: Biodistribution, Liver
  tissue uptake at 1 h: 0.27 %ID/g
[1]; lung, 1 h, blocking: co-injection of IPLPPPRRPFFK 1 mg/mouse, read-out: Biodistribution, Lung
  tissue uptake at 1 h: 0.66 %ID/g
[1]; mouse, blood, 74 kBq, 10 min post-injection, i.v., read-out: Biodistribution, Blood
  tissue uptake at 10 min: 3.87 %ID/g
[1]; mouse, blood, 74 kBq, 1 h post-injection, i.v., read-out: Biodistribution, Blood
  tissue uptake at 1 h: 0.15 %ID/g
[1]; mouse, bone, 74 kBq, 10 min post-injection, i.v., read-out: Biodistribution, Bone
  tissue uptake at 10 min: 1.62 %ID/g
[1]; mouse, bone, 74 kBq, 1 h post-injection, i.v., read-out: Biodistribution, Bone
  tissue uptake at 1 h: 0.24 %ID/g
[1]; mouse, brain, 74 kBq, 10 min post-injection, i.v., read-out: Biodistribution, Brain
  tissue uptake at 10 min: 0.13 %ID/g
[1]; mouse, brain, 74 kBq, 1 h post-injection, i.v., read-out: Biodistribution, Brain
  tissue uptake at 1 h: 0.01 %ID/g
[1]; mouse, heart, 74 kBq, 10 min post-injection, i.v., read-out: Biodistribution, Heart
  tissue uptake at 10 min: 1.47 %ID/g
[1]; mouse, heart, 74 kBq, 1 h post-injection, i.v., read-out: Biodistribution, Heart
  tissue uptake at 1 h: 0.07 %ID/g
[1]; mouse, 74 kBq, 10 min post-injection, i.v., BxPC3-luc tumor, read-out: Biodistribution, Tumor
  tissue uptake at 10 min: 3.11 %ID/g
[1]; mouse, 74 kBq, 1 h post-injection, i.v., BxPC3-luc tumor, read-out: Biodistribution, Tumor
  tissue uptake at 1 h: 0.39 %ID/g
[1]; mouse, kidney, 74 kBq, 10 min post-injection, i.v., read-out: Biodistribution, Kidney
  tissue uptake at 10 min: 13.9 %ID/g
[1]; mouse, kidney, 74 kBq, 1 h post-injection, i.v., read-out: Biodistribution, Kidney
  tissue uptake at 1 h: 3.07 %ID/g
[1]; mouse, large intestine, 74 kBq, 10 min post-injection, i.v., read-out: Biodistribution, Large intestine
  tissue uptake at 10 min: 0.87 %ID/g
[1]; mouse, large intestine, 74 kBq, 1 h post-injection, i.v., read-out: Biodistribution, Large intestine
  tissue uptake at 1 h: 0.13 %ID/g
[1]; mouse, liver, 74 kBq, 10 min post-injection, i.v., read-out: Biodistribution, Liver
  tissue uptake at 10 min: 0.9 %ID/g
[1]; mouse, liver, 74 kBq, 1 h post-injection, i.v., read-out: Biodistribution, Liver
  tissue uptake at 1 h: 0.22 %ID/g
[1]; mouse, lung, 74 kBq, 10 min post-injection, i.v., read-out: Biodistribution, Lung
  tissue uptake at 10 min: 3.7 %ID/g
[1]; mouse, lung, 74 kBq, 1 h post-injection, i.v., read-out: Biodistribution, Lung
  tissue uptake at 1 h: 0.46 %ID/g
[1]; mouse, muscle, 74 kBq, 10 min post-injection, i.v., read-out: Biodistribution, Muscle
  tissue uptake at 10 min: 0.86 %ID/g
[1]; mouse, muscle, 74 kBq, 1 h post-injection, i.v., read-out: Biodistribution, Muscle
  tissue uptake at 1 h: 0.07 %ID/g
[1]; mouse, pancreas, 74 kBq, 10 min post-injection, i.v., read-out: Biodistribution, Pancreas
  tissue uptake at 10 min: 0.89 %ID/g
[1]; mouse, pancreas, 74 kBq, 1 h post-injection, i.v., read-out: Biodistribution, Pancreas
  tissue uptake at 1 h: 0.13 %ID/g
[1]; mouse, small intestine, 74 kBq, 10 min post-injection, i.v., read-out: Biodistribution, Small intestine
  tissue uptake at 10 min: 1.16 %ID/g
[1]; mouse, small intestine, 74 kBq, 1 h post-injection, i.v., read-out: Biodistribution, Small intestine
  tissue uptake at 1 h: 0.63 %ID/g
[1]; mouse, spleen, 74 kBq, 10 min post-injection, i.v., read-out: Biodistribution, Spleen
  tissue uptake at 10 min: 0.99 %ID/g
[1]; mouse, spleen, 74 kBq, 1 h post-injection, i.v., read-out: Biodistribution, Spleen
  tissue uptake at 1 h: 0.13 %ID/g
[1]; mouse, stomach, 74 kBq, 10 min post-injection
  tissue uptake dose at 10 min: 0.19 %ID
[1]; mouse, tumor/blood, 74 kBq, 10 min post-injection
  tissue to tissue ratio at 10 min: 0.81
[1]; mouse, tumor/blood, 74 kBq, 1 h post-injection
  tissue to tissue ratio at 1 h: 2.61
[1]; muscle, 1 h, blocking: co-injection of IPLPPPRRPFFK 1 mg/mouse, read-out: Biodistribution, Muscle
  tissue uptake at 1 h: 0.22 %ID/g
[1]; pancreas, 1 h, blocking: co-injection of IPLPPPRRPFFK 1 mg/mouse, read-out: Biodistribution, Pancreas
  tissue uptake at 1 h: 0.21 %ID/g
[1]; small intestine, 1 h, blocking: co-injection of IPLPPPRRPFFK 1 mg/mouse, read-out: Biodistribution, Small intestine
  tissue uptake at 1 h: 0.66 %ID/g
[1]; spleen, 1 h, blocking: co-injection of IPLPPPRRPFFK 1 mg/mouse, read-out: Biodistribution, Spleen
  tissue uptake at 1 h: 0.29 %ID/g
[1]; stomach, 1 h, blocking: co-injection of IPLPPPRRPFFK 1 mg/mouse
  tissue uptake dose at 1 h: 0.05 %ID
[1]; tumor/blood, 1 h, blocking: co-injection of IPLPPPRRPFFK 1 mg/mouse
  tissue to tissue ratio at 1 h: 1.19
[2]; 1 h, blocking: co-injection of IPLPPPRRPFFK 1 mg/mouse
  Tumor/Blood ratio: significantly decreased
[2]; 1 h post-injection, i.v.
  Tumor/Blood ratio: 2.61 and 2.61 ± 0.75
[3]
  tissue uptake dose at 1 h: 0.06 %ID
[4]; 3 h
  In vitro stability in PBS pH 7.4, percentage of remained intact radiotracer: 96.9 ± 0.5%
[4]; 24 h
  In vitro stability in PBS pH 7.4, percentage of remained intact radiotracer: 95.6 ± 0.4%
[5]; 1 h, 60 min
  In vitro stability in murine plasma, percentage of remained intact radiotracer: 75.9 ± 1.2%
[5]; mouse, plasma, In vitro stability in murine plasma, percentage of remained intact radiotracer, 10 min
  remaining at 10 min: 84.4 ± 2%
[5]; mouse, plasma, In vitro stability in murine plasma, percentage of remained intact radiotracer, 1 h
  remaining at 1 h: > 75%
[6]
  logP: < -4
